Data on 1 compound can be found in patent publication US8637493B2, “Methods for treating glioblastoma” (University of Massachusetts, priority 2009, dated 2014).

One test relates to U87NS. The experiment in a line: Neurosphere formation / recovery / secondary neurosphere assay, U87NS. Type of test: cell-based, human. The settings on record: LY alone at various concentrations, counted after 7 days. Here is the method: (§1) The effect of chemotherapy on neurosphere formation was assayed in glioma neurosphere cultures. Cultures are treated with a single dose of the agent, e.g., TMZ and multiple doses of a GSI, e.g., DAPT to inhibit the Notch pathway. After the Treatment phase, the number of initial spheres (counted about 7 days after TMZ treatment) represents the number of proliferating CSC/progenitors (FIG. 1 for schematic). Recovery (counted 14 days after TMZ treatment) includes enlargement of the initial spheres and new spheres formed when CSC/progenitor cells quiescent as a result of chemotherapy resume cell proliferation. […] The cells used included U87NS, a neurosphere culture converted to neurosphere growth in defined medium from U87MG (an old Swedish line that is grown in conventional serum conditions); GS7-2, GS8-26 and GS6-22 primary neurosphere cultures that were obtained from grade IV GBM patient tumor samples and AS5-15, which was obtained from a grade III anaplastic astrocytoma.
(§2) To determine the effects of TMZ plus DAPT neurospheres, cells were plated as previously described (Mihaliak et al., Cancer Letts. 296, 168-177 (2010)). Immediately after plating, cells were treated with DMSO, DAPT-only, LY411,575 (LY)-only TMZ-only, TMZ+DAPT or TMZ+LY. The initial neurospheres were counted on day 7 for the converted cell lines and on day 10 for the slower growing primary lines. Neurosphere recovery was measured on day 14 or 20. The neurospheres were dissociated, re-plated and secondary neurosphere formation was measured on day 21 or 30.
(§3) Neurosphere cultures were dissociated to single cell suspensions by pH dissociation followed by filtration through 40 μm screens. For the neurosphere assay, 3,000 cells/ml of defined medium were seeded in 6-well plates. Immediately after plating, cells were treated with DMSO (Research Organics, Cleveland, Ohio) carrier control, TMZ-only, DAPT-only, or TMZ+DAPT. Additional DAPT was added on days 2 and 4. Neurospheres consisting of 10 or more cells were counted under a light microscope on day 7 for the converted cell lines. Primary lines have a slightly longer doubling time and were counted on day 10. After counting the neurospheres from the initial treatment, 2 ml of fresh defined medium was added to each well. DAPT was also added once more to the DAPT-only and TMZ+DAPT samples, and the cells were incubated for an additional 7 or 10 days. Neurospheres from the recovery period were counted on day 14 or day 20. To analyze secondary neurosphere formation, cells were collected, pelleted and dissociated to a single cell suspension by the pH method. Cells from each well were re-seeded into 6-well plates with 2 ml of defined medium. The number of secondary neurospheres formed by converted cell lines and primary cultures were counted on day 21 or day 30, respectively. All recovery assays were repeated with a minimum of 6 replicate sets of time points.
For the samples labeled “PRE-treat”, a single dose of DAPT was administered when the cells were plated, and then TMZ was added to the medium 24 hours later. For the “CO-treat” samples, single doses of TMZ and DART were added simultaneously when the cells were plated. Finally, samples labeled “POST-treat” were treated with TMZ, and then DAPT was added 24 hours later.

Another test deals with U373NS. The experiment in a line: Neurosphere formation / recovery / secondary neurosphere assay, U373NS. Type of test: cell-based, human. Here is the method:
as §1, §2, §3

Turning to `C[C@H](NC(=O)[C@@H](O)c1cc(F)cc(F)c1)C(=O)N[C@@H]1C(=O)N(C)c2ccccc2-c2ccccc21` [LY, N-2((2S)-2-(3,5-difluorophenyl)-2-hydroxyethanoyl)-N1-((7S)-5-methyl-6-oxo-6,7-dihydro-5H-dibenzo[b,d]azepin-7-yl)-L-alaninamide], the neurosphere formation result in the test with U87NS is “dose-dependent decrease”; with U373NS (LY alone at various concentrations, counted after 7 days) it was “dose-dependent decrease”. Further, the “secondary neurosphere formation compared to DMSO treated samples” value with U373NS (LY-only, secondary formation still robust) was “decreased”.
